In US10633339B2, “Tricyclic sulfone compound as a ROR gamma modulator” (BRISTOL-MYERS SQUIBB COMPANY, priority 2018, dated 2020):

Assays:
[1] = Glutathione conjugate formation in rat liver cytosol incubations; assay type: in vitro ADME
Experimental: (§1) Assay for Glutathione Conjugate formation in Rat or Human Cytosol Incubations Compound A and Compound 1 were incubated at a concentration of 10 μM with rat or human liver cytosol (3-5 mg/mL) (male Sprague-Dawley rat liver cytosol, lot BIM, n=100 purchased from Bioreclamation IVT, or mixed gender pool, lot 452115, n=150 purchased from Corning) in 1 mL of potassium phosphate buffer (50 mM, pH 8.5). The reactions (n=2, total volume=1000 μL) were initiated by the addition of glutathione (GSH) (5 mM) and incubated at 37° C. in a thermomixer. At 0 and 60 min, aliquots (100 μL) of the reaction mixtures were collected, and reactions were terminated by adding two volumes of acetonitrile. Proteins were then removed using a Millipore Sigma (Massachusetts, BA) Multiscreen Solvinert filter plate, by centrifugation (Eppendorf 5810 R, Hamburg, Germany) at 2000 rpm for 5 min. The filtrate was collected in a 96-well plate and was analyzed by high resolution Velos LTQ-Orbitrap (LC-UV/MS) system. UV absorbance was collected from 220-600 nm. […] The degrees of formation of GSH conjugates from the two compounds is shown below. Entries represent UV peak areas calculated relative to the parent compound at 260-280 nm. Data in parentheses represent the averages of the two experiments.

[2] = Glutathione conjugate formation in human liver cytosol incubations; assay type: in vitro ADME; settings: 10 μM compound, 5 mM GSH, 37° C., 60 min; UV peak area relative to parent at 260-280 nm; n=2
Experimental: as §1

C[C@H]1C[C@H](C(=O)O)CC[C@H]1C(=O)N1CC[C@@]2(S(=O)(=O)c3ccccc3)c3cc(F)c(C(F)(C(F)(F)F)C(F)(F)F)cc3CC[C@@H]12 [Compound 1, (1R,3S,4R)-4-((3aR,9bR)-8-fluoro-7-(perfluoropropan-2-yl)-9b-(phenylsulfonyl)-2,3,3a,4,5,9b-hexahydro-1H-benzo[e]indole-3-carbonyl)-3-methylcyclohexane-1-carboxylic acid]
GSH conjugate, Rat Cytosol UV Area (%), individual experiments ([1]; 10 μM compound, 5 mM GSH, 37° C., 60 min, UV peak area relative to parent at 260-280 nm, n=2): not detected | GSH adduct formation (statement in words) ([1]; based on in vitro experiments (rat or human cytosol, not given)): did not form a GSH adduct | GSH conjugate, Human Cytosol UV Area (%), individual experiments [2]: not detected
